# The source made the active and inactive calls.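 The calls were made as follows: active = inhibition of the parasite aminopeptidase above 50%; inactive = the rest.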
# Target: Leucine aminopeptidase (Plasmodium falciparum (isolate 3D7)) (UniProt Q8IL11)
# Experiment: recombinant PfM17LAP enzyme inhibitors, late-stage follow-up, biochemical, fluorescence, powder samples (AID 492977)
# Conditions: H-Leu-NHMec fluorogenic substrate, at 5 µM, stronger effect = higher value
# Sequence of Leucine aminopeptidase (Plasmodium falciparum (isolate 3D7)) (Q8IL11 whole entry, looked up): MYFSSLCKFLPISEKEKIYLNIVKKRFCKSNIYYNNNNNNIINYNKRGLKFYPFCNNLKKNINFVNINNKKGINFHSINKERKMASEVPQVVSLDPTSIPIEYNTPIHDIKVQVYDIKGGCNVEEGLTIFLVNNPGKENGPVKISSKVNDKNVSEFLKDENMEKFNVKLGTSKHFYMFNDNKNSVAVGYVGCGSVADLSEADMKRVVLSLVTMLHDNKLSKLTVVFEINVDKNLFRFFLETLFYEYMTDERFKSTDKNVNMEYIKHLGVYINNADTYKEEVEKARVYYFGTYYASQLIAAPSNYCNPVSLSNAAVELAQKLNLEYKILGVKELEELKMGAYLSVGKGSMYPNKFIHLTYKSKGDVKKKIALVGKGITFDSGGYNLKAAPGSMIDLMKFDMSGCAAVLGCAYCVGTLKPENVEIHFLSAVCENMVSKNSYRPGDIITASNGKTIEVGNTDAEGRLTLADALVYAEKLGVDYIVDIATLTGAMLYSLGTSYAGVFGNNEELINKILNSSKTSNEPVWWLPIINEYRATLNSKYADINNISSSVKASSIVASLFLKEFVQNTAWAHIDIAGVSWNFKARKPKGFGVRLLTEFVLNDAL
row,inhibition,SMILES
1,70%,CCn1c2ccccc2c2cc(NC(=O)CSc3nccc(=O)[nH]3)ccc21
2,13% (inactive),O=C(Nc1cccc(Cl)c1)[C@H]1CC=CC[C@H]1C(=O)O
3,49% (inactive),O=c1cc(-c2ccc(F)cc2)[nH][nH]1
4,17% (inactive),COC(=O)c1c(NC(=O)[C@H]2CC=CC[C@H]2C(=O)O)sc(C)c1C
5,40% (inactive),COc1ccc(-c2cc(=O)[nH][nH]2)cc1
6,45% (inactive),S=c1nc(-c2cccc(Cl)c2)[nH][nH]1
7,59%,COC(=O)c1c(NC(=O)[C@H]2CCCC[C@H]2C(=O)O)sc2c1CCCCC2
8,24% (inactive),CCOC(=O)c1c(-c2ccc(C)cc2)csc1NC(=O)[C@H]1CC=CC[C@H]1C(=O)O
9,18% (inactive),COc1ccc(-c2cc(=O)[nH][nH]2)cc1OC
10,20% (inactive),O=C(CSc1nc(O)cc(=O)n1-c1ccccc1)Nc1ccc2c3c(cccc13)CC2
11,72%,COc1cc(NC(=O)CSc2nnc3c(C)cc4cc(C)cc(C)c4n23)c(C(=O)O)cc1OC
12,21% (inactive),COC(=O)c1cccc(NC(=O)CSc2nc(C)cc(=O)[nH]2)c1
13,86%,COc1cc(NC(=O)CSc2nc3ccccc3cc2C)c(C(=O)O)cc1OC
14,60%,O=C(CSc1nccc(=O)[nH]1)Nc1ccc(Br)c(Cl)c1
15,12% (inactive),Cn1c(SCC(=O)Nc2cccc3ccccc23)nc(O)cc1=O
16,38% (inactive),O=C(O)Cc1ccc(NC(=O)Nc2ccc(Br)cc2)cc1
17,72%,CCOc1cccc(-c2cc(=O)[nH][nH]2)c1
18,27% (inactive),CCCCc1c(O)nc(SCC(=O)Nc2ccc3c(c2)CCC3)[nH]c1=O
19,86%,COc1ccc2nc(SCC(=O)Nc3cc(OC)c(OC)cc3C(=O)O)c(C)cc2c1

row,inhibition,SMILES
1,15% (inactive),CC(C)c1ccc(NC(=O)[C@H]2CCCC[C@H]2C(=O)O)cc1
2,25% (inactive),N#Cc1c(NC(=O)[C@@H]2C3C=CC(C3)[C@@H]2C(=O)O)sc2c1CCCCC2 (some centres not stated)
3,19% (inactive),CCOC(=O)c1c(-c2cccc(C)c2)csc1NC(=O)[C@H]1CC=CC[C@H]1C(=O)O
4,47% (inactive),COC(=O)c1c(-c2ccc(C)cc2)csc1NC(=O)[C@H]1CC=CC[C@H]1C(=O)O
5,93%,COc1cc(NC(=O)CSc2nc3c(C)ccc(C)c3cc2C)c(C(=O)O)cc1OC
6,26% (inactive),COc1ccc(C(C)(C)C)cc1NC(=O)[C@H]1CC=CC[C@H]1C(=O)O
7,65%,O=C(Nc1ccc(Cl)cc1)Nc1cccc(C(=O)O)c1
8,15% (inactive),O=C(O)CCCCCNC(=O)Nc1ccc2c(c1)OCCO2
9,9% (inactive),Cc1ccc(-c2cccc(NC(=O)[C@@H]3C4C=CC(C4)[C@@H]3C(=O)O)c2)o1 (some centres not stated)
10,18% (inactive),COc1ccc(NC(=O)CSc2nc(O)cc(=O)n2C)cc1
11,17% (inactive),Cc1ccc(NC(=O)CSc2nnc(C)c(=O)[nH]2)cc1C
12,89%,CCc1cc2cc(OC)ccc2nc1SCC(=O)Nc1cc(OC)c(OC)cc1C(=O)O
13,21% (inactive),COc1ccc(NC(=O)CSC2=NC(=O)CC(C)=N2)cc1
14,43% (inactive),CCN(CC)c1ccc(NC(=O)CSc2nc(C)cc(=O)[nH]2)cc1
15,31% (inactive),CCOc1ccc(NC(=O)Nc2cccs2)cc1
16,90%,CCc1cc2ccc(C)cc2nc1SCC(=O)Nc1cc(OC)c(OC)cc1C(=O)O
17,20% (inactive),CCOC(=O)c1c(NC(=O)[C@@H]2C3CCC(O3)[C@@H]2C(=O)O)sc(C)c1-c1ccc(C)cc1 (some centres not stated)
18,2% (inactive),O=c1cc(-c2ccc(Cl)c(Cl)c2)[nH][nH]1
19,40% (inactive),Cc1ccc(-n2c(C)cc(C(=O)COC(=O)c3ccc[nH]c3=O)c2C)cc1

row,inhibition,SMILES
1,23% (inactive),Cc1cc(C(=O)COC(=O)c2ccc[nH]c2=O)c(C)n1-c1ccccc1
2,20% (inactive),C=CCn1c(SCC(=O)Nc2cccc3ccccc23)nc(O)c(CC)c1=O
3,82%,COc1cc(NC(=O)CSc2nc3cc(C)ccc3cc2C)c(C(=O)O)cc1OC
4,14% (inactive),O=C(Nc1cc(Cl)ccc1Cl)[C@H]1CC=CC[C@H]1C(=O)O
5,10% (inactive),Cc1ccc(Nc2nnc(SCc3cc(=O)n4ccsc4n3)s2)c(C)c1
6,36% (inactive),Cc1ccc(-n2c(C)cc(C(=O)COC(=O)c3ccc[nH]c3=O)c2C)cc1C
7,19% (inactive),Cc1ccc(-c2c(C)sc(NC(=O)[C@@H]3C4CCC(O4)[C@@H]3C(=O)O)c2C(=O)OC(C)C)cc1 (some centres not stated)
8,31% (inactive),CCc1ccc(Nc2nnc(SC3CCOC3=O)s2)cc1 (configuration not stated)
9,50% (inactive),COC(=O)c1c(-c2ccco2)csc1NC(=O)[C@H]1CC=CC[C@H]1C(=O)O
10,53%,Cc1ccc(Nc2nnc(SC3CCOC3=O)s2)cc1 (configuration not stated)
11,27% (inactive),CCc1ccc(NC(=O)[C@H]2CC=CC[C@H]2C(=O)O)cc1
12,27% (inactive),S=c1nc(-c2ccccc2Br)[nH][nH]1
13,11% (inactive),CCOc1ccc(NC(=O)Nc2ccc3nccnc3c2)cc1
14,19% (inactive),Cc1cc(C(=O)COC(=O)c2ccc[nH]c2=O)c(C)n1-c1ccc(F)cc1
15,20% (inactive),CCOC(=O)c1c(NC(=O)[C@@H]2C3C=CC(C3)[C@@H]2C(=O)O)sc2c1CCC(CC)C2 (some centres not stated)
16,37% (inactive),O=C(CSc1nnc(Nc2ccccc2)s1)NN1C(=O)NC2(CCCCC2)C1=O
17,12% (inactive),CC1=C(C)C[C@@H](C(=O)O)[C@@H](C(=O)Nc2cccc([N+](=O)[O-])c2)C1
18,89%,CCc1cc2ccccc2nc1SCC(=O)Nc1cc(OC)c(OC)cc1C(=O)O
19,58%,COC(=O)c1c(-c2cc(C)ccc2C)csc1NC(=O)[C@@H]1CC=CC[C@@H]1C(=O)O

# From PubChem BioAssay AID492977 (The Scripps Research Institute Molecular Screening Center, 2010)
